Ki, Drug uptake and logD data for 10 molecules are collected here from ChEMBL document CHEMBL1139874, “New diphenylacetylenes as probes for positron emission tomographic imaging of amyloid plaques” (J Med Chem, 2007).

The structures appear in SMILES notation. pKi: −log10 of the molar value.

Data set [1] addresses Amyloid-beta precursor protein (Homo sapiens, UniProt P05067). The data set is described as follows: Displacement of [125I]IMPY from human beta amyloid plaque in brain homogenates. The format is tissue-based. (In general: Displacement assays read how much labelled ligand stays bound in the presence of the test substance.)
Data set [2] has as its system Liver. In words: Biodistribution in ICR mouse liver at 5 to 10 uCi, iv after 2 hrs. Type of data set: ADME, organism-based. Conditions: in vivo.
In data set [3] the test system is Zone of skin. In words: Biodistribution in ICR mouse skin at 5 to 10 uCi, iv after 2 hrs. The format is ADME, organism-based. Particulars: in vivo.
Data set [4] concerns Brain. In words: Biodistribution in ICR mouse brain at 5 to 10 uCi, iv after 2 hrs. The format is ADME, organism-based. Conditions: in vivo.
The subject of data set [5] is Bone. The data set is described as follows: Biodistribution in ICR mouse bone at 5 to 10 uCi, iv after 2 hrs. The format is ADME, organism-based, Bone element. Conditions: in vivo.
Data set [6] is described as follows: Partition coefficient, log P at pH 7.4. Type of data set: physicochemical. Particulars: octanol/water.
The test system of data set [7] is Blood. In words: Biodistribution in ICR mouse blood at 5 to 10 uCi, iv after 2 mins. The format is ADME, organism-based. Particulars: in vivo.
The test system of data set [8] is Heart. The data set is described as follows: Biodistribution in ICR mouse heart at 5 to 10 uCi, iv after 2 mins. Type of data set: ADME, organism-based. Conditions: in vivo.
Data set [9] has as its system Muscle tissue. The data set is described as follows: Biodistribution in ICR mouse muscle at 5 to 10 uCi, iv after 2 mins. Type of data set: ADME, organism-based. Particulars: in vivo.
Data set [10] has as its system Lung. In words: Biodistribution in ICR mouse lung at 5 to 10 uCi, iv after 2 mins. Conditions: in vivo. The format is ADME, organism-based.
The test system of data set [11] is Kidney. In words: Biodistribution in ICR mouse kidney at 5 to 10 uCi, iv after 2 mins. Conditions: in vivo. The format is ADME, organism-based.
Data set [12] has as its system Spleen. The data set is described as follows: Biodistribution in ICR mouse spleen at 5 to 10 uCi, iv after 2 mins. The format is ADME, organism-based. Particulars: in vivo.
Data set [13] relates to Liver. In words: Biodistribution in ICR mouse liver at 5 to 10 uCi, iv after 2 mins. Conditions: in vivo. Type of data set: ADME, organism-based.
For data set [14], the system named is Zone of skin. The data set is described as follows: Biodistribution in ICR mouse skin at 5 to 10 uCi, iv after 2 mins. Type of data set: ADME, organism-based. Particulars: in vivo.
Data set [15] concerns Brain. In words: Biodistribution in ICR mouse brain at 5 to 10 uCi, iv after 2 mins. Type of data set: ADME, organism-based. Particulars: in vivo.
In data set [16] the test system is Bone. In words: Biodistribution in ICR mouse bone at 5 to 10 uCi, iv after 2 mins. The format is ADME, organism-based, Bone element. Conditions: in vivo.
In data set [17] the test system is Blood. In words: Biodistribution in ICR mouse blood at 5 to 10 uCi, iv after 30 mins. Type of data set: ADME, organism-based. Particulars: in vivo, 0.5 h.
The subject of data set [18] is Heart. In words: Biodistribution in ICR mouse heart at 5 to 10 uCi, iv after 30 mins. Type of data set: ADME, organism-based. Particulars: in vivo, 0.5 h.
Data set [19] has as its system Muscle tissue. In words: Biodistribution in ICR mouse muscle at 5 to 10 uCi, iv after 30 mins. The format is ADME, organism-based. Particulars: in vivo, 0.5 h.
In data set [20] the test system is Lung. The data set is described as follows: Biodistribution in ICR mouse lung at 5 to 10 uCi, iv after 30 mins. The format is ADME, organism-based. Particulars: in vivo, 0.5 h.
In data set [21] the test system is Kidney. In words: Biodistribution in ICR mouse kidney at 5 to 10 uCi, iv after 30 mins. Type of data set: ADME, organism-based. Conditions: in vivo, 0.5 h.
Data set [22] has as its system Spleen. The data set is described as follows: Biodistribution in ICR mouse spleen at 5 to 10 uCi, iv after 30 mins. Particulars: in vivo, 0.5 h. The format is ADME, organism-based.
The subject of data set [23] is Liver. The data set is described as follows: Biodistribution in ICR mouse liver at 5 to 10 uCi, iv after 30 mins. Type of data set: ADME, organism-based. Conditions: in vivo, 0.5 h.
Data set [24] has as its system Zone of skin. In words: Biodistribution in ICR mouse skin at 5 to 10 uCi, iv after 30 mins. The format is ADME, organism-based. Conditions: in vivo, 0.5 h.
Data set [25] relates to Brain. In words: Biodistribution in ICR mouse brain at 5 to 10 uCi, iv after 30 mins. Type of data set: ADME, organism-based. Conditions: in vivo, 0.5 h.
The test system of data set [26] is Bone. In words: Biodistribution in ICR mouse bone at 5 to 10 uCi, iv after 30 mins. The format is ADME, organism-based, Bone element. Particulars: in vivo, 0.5 h.
Data set [27] relates to Blood. In words: Biodistribution in ICR mouse blood at 5 to 10 uCi, iv after 1 hr. The format is ADME, organism-based. Particulars: in vivo.
The test system of data set [28] is Heart. In words: Biodistribution in ICR mouse heart at 5 to 10 uCi, iv after 1 hr. Type of data set: ADME, organism-based. Particulars: in vivo.
In data set [29] the test system is Muscle tissue. The data set is described as follows: Biodistribution in ICR mouse muscle at 5 to 10 uCi, iv after 1 hr. Type of data set: ADME, organism-based. Particulars: in vivo.
For data set [30], the system named is Lung. In words: Biodistribution in ICR mouse lung at 5 to 10 uCi, iv after 1 hr. The format is ADME, organism-based. Particulars: in vivo.
The subject of data set [31] is Kidney. The data set is described as follows: Biodistribution in ICR mouse kidney at 5 to 10 uCi, iv after 1 hr. The format is ADME, organism-based. Particulars: in vivo.
For data set [32], the system named is Spleen. In words: Biodistribution in ICR mouse spleen at 5 to 10 uCi, iv after 1 hr. The format is ADME, organism-based. Particulars: in vivo.
Data set [33] has as its system Liver. In words: Biodistribution in ICR mouse liver at 5 to 10 uCi, iv after 1 hr. The format is ADME, organism-based. Particulars: in vivo.
The test system of data set [34] is Zone of skin. In words: Biodistribution in ICR mouse skin at 5 to 10 uCi, iv after 1 hr. The format is ADME, organism-based. Particulars: in vivo.
Data set [35] concerns Brain. The data set is described as follows: Biodistribution in ICR mouse brain at 5 to 10 uCi, iv after 1 hr. The format is ADME, organism-based. Conditions: in vivo.
The test system of data set [36] is Bone. In words: Biodistribution in ICR mouse bone at 5 to 10 uCi, iv after 1 hr. Type of data set: ADME, organism-based, Bone element. Particulars: in vivo.
Data set [37] concerns Blood. The data set is described as follows: Biodistribution in ICR mouse blood at 5 to 10 uCi, iv after 2 hrs. Conditions: in vivo. Type of data set: ADME, organism-based.
The test system of data set [38] is Heart. The data set is described as follows: Biodistribution in ICR mouse heart at 5 to 10 uCi, iv after 2 hrs. The format is ADME, organism-based. Conditions: in vivo.
Data set [39] relates to Muscle tissue. The data set is described as follows: Biodistribution in ICR mouse muscle at 5 to 10 uCi, iv after 2 hrs. The format is ADME, organism-based. Particulars: in vivo.
Data set [40] has as its system Lung. In words: Biodistribution in ICR mouse lung at 5 to 10 uCi, iv after 2 hrs. Type of data set: ADME, organism-based. Particulars: in vivo.
Data set [41] has as its system Kidney. In words: Biodistribution in ICR mouse kidney at 5 to 10 uCi, iv after 2 hrs. Type of data set: ADME, organism-based. Particulars: in vivo.
The test system of data set [42] is Spleen. In words: Biodistribution in ICR mouse spleen at 5 to 10 uCi, iv after 2 hrs. The format is ADME, organism-based. Conditions: in vivo.

Sequence of Amyloid-beta precursor protein (P05067 whole entry): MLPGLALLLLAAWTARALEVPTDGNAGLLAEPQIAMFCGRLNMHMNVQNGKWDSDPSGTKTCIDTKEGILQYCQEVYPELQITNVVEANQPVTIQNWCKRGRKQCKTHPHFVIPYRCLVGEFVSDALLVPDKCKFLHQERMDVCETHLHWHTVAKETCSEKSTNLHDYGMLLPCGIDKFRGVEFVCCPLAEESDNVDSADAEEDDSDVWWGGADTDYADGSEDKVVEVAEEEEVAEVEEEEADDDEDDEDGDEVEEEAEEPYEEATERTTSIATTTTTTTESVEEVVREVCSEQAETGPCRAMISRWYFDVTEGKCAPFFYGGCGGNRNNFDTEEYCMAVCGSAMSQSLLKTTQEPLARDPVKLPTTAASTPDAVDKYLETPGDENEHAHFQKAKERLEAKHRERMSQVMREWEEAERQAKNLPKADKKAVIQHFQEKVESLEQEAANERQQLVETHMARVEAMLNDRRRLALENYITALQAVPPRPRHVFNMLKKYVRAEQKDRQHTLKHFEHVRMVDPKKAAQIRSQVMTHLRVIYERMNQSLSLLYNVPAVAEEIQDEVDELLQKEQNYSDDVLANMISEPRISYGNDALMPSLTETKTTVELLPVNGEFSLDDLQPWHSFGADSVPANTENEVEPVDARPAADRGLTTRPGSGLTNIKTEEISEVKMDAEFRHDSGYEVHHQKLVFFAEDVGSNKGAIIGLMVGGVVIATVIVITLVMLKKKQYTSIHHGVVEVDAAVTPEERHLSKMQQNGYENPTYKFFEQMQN

In data set [1], `COc1ccc(C#Cc2ccc(N)cc2)cc1` had a pKi of 8.54.
Still for that read-out and setting: in the case of `CN(C)c1ccc(C#Cc2ccc(OCCOCCOCCF)cc2)cc1` it was 8.54; in that of `Nc1ccc(C#Cc2ccc(OCCOCCOCCF)cc2)cc1`, 7.67.
`CN(C)c1ccc(C#Cc2ccc(OCCOCCOCC[18F])cc2)cc1`: the Drug uptake was determined as 6.58 % ID/g with Liver [2]; 0.68 % ID/g with Zone of skin [3]; 0.42 % ID/g in the data set with Brain [4]; 0.7 % ID/g in the data set with Bone [5]; 5.72 % ID/g in the data set with Blood [7]; 9.97 % ID/g in the data set with Heart [8]. Besides, the Drug uptake in the data set on Muscle tissue [9] is reported as 0.79 % ID/g; with Lung [10], 8.38 % ID/g; in the data set with Kidney [11], 12.4 % ID/g; in the data set with Spleen [12], 4.61 % ID/g; in the data set with Liver [13], 23.2 % ID/g; in the data set with Zone of skin [14], 0.68 % ID/g. The Drug uptake in the data set with Brain [15] is listed as 6.78 % ID/g; in the data set with Bone [16], 1.51 % ID/g; with Blood [17], 2.97 % ID/g; in the data set on Heart [18], 1.49 % ID/g; in the data set on Muscle tissue [19], 0.67 % ID/g; in the data set with Lung [20], 2.26 % ID/g. The Drug uptake in the data set with Kidney [21] stood at 2.68 % ID/g; in the data set on Spleen [22] it was 1.39 % ID/g; in the data set on Liver [23], 13.8 % ID/g; with Zone of skin [24], 1.41 % ID/g; in the data set with Brain [25], 1.57 % ID/g; in the data set on Bone [26], 0.64 % ID/g. For the same molecule, the Drug uptake in the data set with Blood [27] is 2.51 % ID/g; in the data set with Heart [28], 1.04 % ID/g; in the data set with Muscle tissue [29] it was 0.51 % ID/g; with Lung [30] it was 1.26 % ID/g; in the data set with Kidney [31] it was 2.53 % ID/g; in the data set on Spleen [32] it was 1.13 % ID/g. For the same molecule, the Drug uptake in the data set with Liver [33] came out at 8.13 % ID/g; with Zone of skin [34] it was 1.28 % ID/g; with Brain [35], 0.77 % ID/g; in the data set with Bone [36], 0.56 % ID/g; with Blood [37], 2.35 % ID/g; in the data set with Heart [38] it was 0.84 % ID/g. Moreover, the Drug uptake in the data set with Muscle tissue [39] is given as 0.42 % ID/g; in the data set with Lung [40] it was 1.47 % ID/g; with Kidney [41], 2.02 % ID/g; with Spleen [42], 1.17 % ID/g. In data set [6], the logD was 3.18.
In [1], `CNc1ccc(C#Cc2ccc(OCCOCCOCCF)cc2)cc1` had a pKi of 8.72.
The same measure, in the same setting: under `CNc1ccc(C#Cc2ccc(OCCOCCF)cc2)cc1` stands 8.92; under `CN(C)c1ccc(C#Cc2ccc(OCCOCCF)cc2)cc1`, 8.30.
Same read-out and setting: in the case of `CNc1ccc(C#Cc2ccc(OCCOCCO)cc2)cc1` it was 8.51; in that of `Nc1ccc(C#Cc2ccc(N)cc2)cc1`, 7.12; in that of `CNc1ccc(C#Cc2ccc(OCCOCCOCCO)cc2)cc1`, 8.35.

Usually pKi stands for the Ki on a negative log10 scale, so that one unit is a factor of ten. Usually logD stands for lipophilicity at a set pH, counting ionised and neutral species. A higher logD goes with higher lipophilicity.
